Experimental data published in paper PMC8145641 (Cells, 2021).
In brackets after ≈: the same amount, converted by molar mass. Where two headings read alike, the source gives them in different places.

How the values were obtained:
[1] = system: Hs27 (human foreskin fibroblast); experiment: Cytotoxicity assay (MTT); type: cell-based; conditions: 24 h treatment
T. gondii = conditions: values from the earlier paper; ref [25]; cited from earlier work
T. gondii RH-GFP [2] = experiment: microbe, parasite or virus in culture; type: cell-based, Toxoplasma gondii
Experimental: Cell and parasite culture: The Hs27 (human foreskin fibroblast) (ATCC® CRL-1634™) (ATCC, Manassas, VA, USA) were culturing in DMEM (Dulbecco’s modified Eagle’s medium-ATCC® 30-2002™, ATCC) supplemented with 10% fetal bovine serum (fetal bovine serum, ATCC® 30-2020™, ATCC), 100 I.U./mL penicillin and 100 μg/mL streptomycin (penicillin-streptomycin solution ATCC® 30-2300™, ATCC). Cells were trypsinized (Trypsin-EDTA Solution ATCC® 30-2101™, ATCC) twice a week and seeded at a density of 1 × 10^6 per T25 cell culture flask and incubated in a 37 °C and 5% CO2 to achieve a confluent monolayer. The RH strain of Toxoplasma gondii (RH-GFP ATCC® 50940™, ATCC, highly virulent, haplogroup first, expression of green fluorescent protein) was maintained as tachyzoites, in parasite culture medium, which contains DMEM medium with 3% HIFBS (heat-inactivated FBS; 1 h in 56 °C). Infected tissue culture cells were incubated in a 37 °C and 5% CO2.
After 72 h of incubation, the medium was removed and then 1 × 10^5 per well of tachyzoites of the RH strain were added to the cell monolayers, in DMEM without phenol red with 3% HIFBS. One hour later, the compounds and drugs dilutions in the DMEM without phenol red medium were added to the Hs27 cells with T. gondii. Concentration of the compounds below cytotoxic concentration (<CC30), sulfadiazine 0–10,000 μM and trimethoprim, pyrimethamine and atovaquone 0–200 μM. After a subsequent 96 h of incubation, the plates were read with covered lids, and both excitation (475 nm) and emission (509 nm) from the bottom using multimode microplate reader SpectraMax® i3. The results were expressed as mean fluorescent intensity (MFI) and transformed to the percentage of viability compared to untreated cells. Finally, the inhibitory concentrations for 50% inhibition of T. gondii proliferation (IC50) were calculated. All experiments were performed in triplicate.
Graphs and statistical analyses: Statistical analyses and graphs were performed using GraphPad Prism version 9.0.0 for macOS (GraphPad Software, San Diego, CA, USA). […] Additionally, a relationship between cytotoxicity and antiparasitic activity were calculated as the ratio of the 30% cytotoxic concentration (CC30) to the 50% antiparasitic concentration (IC50) and presented as the selectivity index (SI).

[3] = system: tachyzoites of the RH-GFP strain; experiment: Influence of compounds during Toxoplasma growth, Assay A (invasion); type: cell-based, Toxoplasma gondii; conditions: compound at IC50 present 3 h during infection, washed, 24 h free medium; vs non-treated
Experimental: (§1) Influence of Compounds during Toxoplasma Growth (Assay A and B): Hs27 cells were cultured on Lab-Tek™ 4-well Chamber Slides (Nunc, Thermo Fisher Scientific, Waltham, MA, USA) (5 × 10^4 cells/500 μL per well).
Assay A—after 48 h, the medium was removed and then 5 × 10^5/500 µL/well tachyzoites of the RH-GFP strain were added to the cell monolayers, in parasite culture medium with the selected compounds at IC50 concentration: 2b, 5b, 8b, 11b or 12b, for 3 h. Then, the cells were washed to remove extracellular parasites and parasite culture medium (without any compounds) was added for 24 h.
(§2) In both assays as the controls, Hs27 cells were infected, but not treated. After subsequent 24 h of incubation (Assay A and B), the slides were washed with sterile PBS, fixed with formaldehyde solution (252549, Sigma-Aldrich), 3.7% in PBS for 20 min and stained with DAPI for 10 min (1 mg/mL, ThermoFisher Scientific). Microscopic analysis of 100 cells in turn, comprised of counting the infected cell ratio and tachyzoites per each parasitophorous vacuoles of infected cell, was performed using a fluorescent microscope (Axio Scope.A1, Carl Zeiss, Jena, Germany) at a magnification ×1000. For image processing ZEISS ZEN Microscope Software version 3.1 was used. Three independent experiments on triplicate chamber slides using the same conditions for both assays were performed.

[4] = system: tachyzoites of the RH-GFP strain; experiment: Influence of compounds during Toxoplasma growth, Assay B (intracellular proliferation); type: cell-based, Toxoplasma gondii; conditions: 3 h infection without compound, washed, 24 h with compound at IC50
Experimental: as §1
Assay B—after 48 h, the medium was removed and then 5 × 10^5/500 µL/well tachyzoites of the RH-GFP strain were added to the cell monolayers, in parasite culture medium for 3 h.
as §2

T. gondii RH-GFP [5] = experiment: Kinetics of T. gondii growth, Assay 1 (intracellular tachyzoites); type: cell-based, Toxoplasma gondii; conditions: Assay 1 and Assay 2, Figure 12
Experimental: Kinetics of T. gondii growth: The effect of 12b and drugs on kinetics of T. gondii RH-GFP growth was performed as follows: 1 × 10^4 per well of Hs27 cells were seeded on black, 96-well, tissue culture-treated plates with optical bottoms in DMEM cell culture medium.
Assay 1—After 72 h of incubation, the medium was removed and then 1 × 10^5 per well of tachyzoites of the RH strain were added to the cell monolayers, in DMEM without phenol red with 3% HIFBS. One hour later, the compound 12b and drugs dilutions in the DMEM without phenol red medium were added to the Hs27 cells with T. gondii.
The plates were read with covered lids, and both excitation (475 nm) and emission (509 nm) from the bottom using multimode microplate reader SpectraMax® i3. Additionally, fluorescence measurement was performed every 24 h. The plates were incubated at 37 °C with 5% of CO2. The results were expressed as mean fluorescent intensity (MFI). The initial value for 1 × 10^5 of T. gondii RH-GFP was 37,000 MFI (log 4.57). The lower limit of detection was 1000 MFI (log 3.0). Data presented as a logarithm of mean fluorescence intensity (logMFI) on concentration and time dependent curves. All experiments were performed in triplicate.

[6] = Toxoplasma gondii, HS27, 96 h; read-out: IC50 (50% inhibition of T. gondii proliferation)
[7] = ratio of CC30 (Hs27) to IC50 (T. gondii); 1b–12b and positive controls

Row | Compound | CC30 (cytotoxic concentration causing 30% of cells proliferation inhibition) [1] [µg/mL] | IC50 (50% inhibition of T. gondii proliferation) (T. gondii) [µg/mL] | IC50 (T. gondii RH-GFP [2]; [6]) [µg/mL] | SI (selectivity index, CC30/IC50) (T. gondii RH-GFP [2]; [7]) | further results
1 | Cc1nc[nH]c1C(=O)NNC(=S)Nc1ccccc1F [1a] | 289.60 | 68.83 |  |  | 
2 | Cc1nc[nH]c1-c1nnc(Nc2ccccc2F)s1 [1b] | 157.71 |  | 26.2 (≈ 95.1 µM) |  | 
3 | Cc1nc[nH]c1C(=O)NNC(=S)Nc1cccc(F)c1 [2a] | 125.17 | 113.45 |  |  | 
4 | Cc1nc[nH]c1-c1nnc(Nc2cccc(F)c2)s1 [2b] | 18.96 |  | 7.04 (≈ 25.6 µM) | 2.69 | number of tachyzoites per vacuole (Assay A) [3]: significant reductions; percentage of infected cells (Assay A) [3]: significant reductions; number of intravacuolar tachyzoites (Assay B) [4]: significant reduction; percentage of infected cells (Assay B) [4]: still the same; size of parasitophorous vacuole (Assay B) [4]: significant reduction
5 | Cc1nc[nH]c1C(=O)NNC(=S)Nc1ccc(F)cc1 [3a] | 266.20 | 110.31 |  |  | 
6 | Cc1nc[nH]c1-c1nnc(Nc2ccc(F)cc2)s1 [3b] | 26.17 |  | 11.4 (≈ 41.5 µM) | 2.29 | 
7 | Cc1nc[nH]c1C(=O)NNC(=S)Nc1ccccc1Cl [4a] | 143.15 | 35.61 |  |  | 
8 | Cc1nc[nH]c1-c1nnc(Nc2ccccc2Cl)s1 [4b] | 24.69 |  | 12.4 (≈ 42.4 µM) | 2.00 | 
9 | Cc1nc[nH]c1C(=O)NNC(=S)Nc1cccc(Cl)c1 [5a] | 96.78 | 24.15 |  |  | 
10 | Cc1nc[nH]c1-c1nnc(Nc2cccc(Cl)c2)s1 [5b] | 17.88 |  | 3.65 (≈ 12.5 µM) | 4.90 | number of tachyzoites per vacuole (Assay A) [3]: significant reductions; percentage of infected cells (Assay A) [3]: significant reductions; number of intravacuolar tachyzoites (Assay B) [4]: significant reduction; percentage of infected cells (Assay B) [4]: still the same; size of parasitophorous vacuole (Assay B) [4]: significant reduction
11 | Cc1nc[nH]c1C(=O)NNC(=S)Nc1ccc(Cl)cc1 [6a] | 94.12 | 73.37 |  |  | 
12 | Cc1nc[nH]c1-c1nnc(Nc2ccc(Cl)cc2)s1 [6b] | 45.97 |  | 8.36 (≈ 28.7 µM) | 5.50 | 
13 | Cc1nc[nH]c1C(=O)NNC(=S)Nc1ccccc1Br [7a] | 205.31 | 27.65 |  |  | 
14 | Cc1nc[nH]c1-c1nnc(Nc2ccccc2Br)s1 [7b] | 29.71 |  | 8.77 (≈ 26.1 µM) | 3.39 | 
15 | Cc1nc[nH]c1C(=O)NNC(=S)Nc1cccc(Br)c1 [8a] | 96.12 | 15.64 |  |  | 
16 | Cc1nc[nH]c1-c1nnc(Nc2cccc(Br)c2)s1 [8b] | 20.55 |  | 3.83 (≈ 11.4 µM) | 5.37 | number of tachyzoites per vacuole (Assay A) [3]: significant reductions; percentage of infected cells (Assay A) [3]: significant reductions; number of intravacuolar tachyzoites (Assay B) [4]: significant reduction; percentage of infected cells (Assay B) [4]: still the same; size of parasitophorous vacuole (Assay B) [4]: significant reduction
17 | Cc1nc[nH]c1C(=O)NNC(=S)Nc1ccc(Br)cc1 [9a] | 48.89 | 14.57 |  |  | 
18 | Cc1nc[nH]c1-c1nnc(Nc2ccc(Br)cc2)s1 [9b] | 21.52 |  | 5.41 (≈ 16.1 µM) | 3.98 | 
19 | Cc1nc[nH]c1C(=O)NNC(=S)Nc1ccccc1I [10a] | 101.58 | 20.31 |  |  | 
20 | Cc1nc[nH]c1-c1nnc(Nc2ccccc2I)s1 [10b] | 89.54 |  | 11 (≈ 28.8 µM) | 8.13 | 
21 | Cc1nc[nH]c1C(=O)NNC(=S)Nc1cccc(I)c1 [11a] | 85.57 | 10.30 |  |  | 
22 | Cc1nc[nH]c1-c1nnc(Nc2cccc(I)c2)s1 [11b] | 36.48 |  | 4.49 (≈ 11.7 µM) | 8.13 | number of tachyzoites per vacuole (Assay A) [3]: significant reductions; percentage of infected cells (Assay A) [3]: significant reductions; number of intravacuolar tachyzoites (Assay B) [4]: significant reduction; percentage of infected cells (Assay B) [4]: still the same; size of parasitophorous vacuole (Assay B) [4]: significant reduction
23 | Cc1nc[nH]c1C(=O)NNC(=S)Nc1ccc(I)cc1 [12a] | 71.58 | 22.01 |  |  | 
24 | O=C1C(O)=C([C@H]2CC[C@H](c3ccc(Cl)cc3)CC2)C(=O)c2ccccc21 [Atovaquone (ATO), Atovaquone, reference compound] | 54.26 |  | 0.24 (≈ 0.654 µM) | 227.56 | effect on the kinetics of T. gondii growth (T. gondii RH-GFP [5]): only moderately slow down the proliferation of tachyzoites
25 | CCc1nc(N)nc(N)c1-c1ccc(Cl)cc1 [Pyrimethamine (PYR), Pyrimethamine, reference compound] | 45.26 |  |  | 15.85 | effect on the kinetics of T. gondii growth (T. gondii RH-GFP [5]): only moderately slow down the proliferation of tachyzoites; IC50 (T. gondii RH-GFP [2]; Toxoplasma gondii, HS27, 96 h, read-out: IC50 (50% inhibition of T. gondii proliferation)): 2.86 µg/mL (≈ 11.5 µM)
